The structures appear in SMILES notation. Counter-ions that a name gives are not always drawn. Like-named read-outs stand apart in the source and are kept apart here.

This is an account of results in patent US6204293A, “Inhibitors of protein isoprenyl transferases” (University of Pittsburgh, priority 1998, dated 2001).

This test addresses T1, Rat brain protein farnesyltransferase (Rattus norvegicus, UniProt Q02293+Q04631).
T1 construct: Rat brain protein farnesyltransferase activity is measured; from tissue; host or cells: rat brain
The experiment in a line: % inhibition of farnesylation, scintillation proximity assay with biotin-K Ras B fragment. It counts as biochemical. The following applies: for inhibition at 1 µM: read-out: % inhibition at 1 × 10^-6 M; for % inhibition at 1 × 10^-5 M: Table 1. The source says: The ability of the compounds of the invention to inhibit protein farnesyltransferase or protein geranylgeranyltransferase can be measured according to the method of Moores, et al., J. Biol. Chem. 266: 14603 (1991) or the method of Vogt, et al., J. Biol. Chem. 270:660-664 (1995). In addition, procedures for determination of the inhibition of farnesylation of the oncogene protein Ras are described by Goldstein, et al., J. Biol. Chem., 266:15575-15578 (1991) and by Singh in U.S. Pat. No. 5,245,061.
In addition, in vitro inhibition of protein farnesyltransferase may be measured by the following procedure. Rat brain protein farnesyltransferase activity is measured using an Amersham Life Science commercial scintillation proximity assay kit and substituting a biotin-K Ras B fragment (biotin-[…]CO2 H), 0.1 mM final concentration, for the biotin-lamin substrate provided by Amersham. The enzyme is purified according to Reiss, Y., et al., Cell, 62: 81-88 (1990), utilizing steps one through three.
The % inhibition of protein farnesyltransferase was determined for representative compounds of the invention.
Background: In a scintillation proximity assay essentially only radioactivity close to the scintillant gives light.

T1 sequence (Q02293 whole entry, one chain of several): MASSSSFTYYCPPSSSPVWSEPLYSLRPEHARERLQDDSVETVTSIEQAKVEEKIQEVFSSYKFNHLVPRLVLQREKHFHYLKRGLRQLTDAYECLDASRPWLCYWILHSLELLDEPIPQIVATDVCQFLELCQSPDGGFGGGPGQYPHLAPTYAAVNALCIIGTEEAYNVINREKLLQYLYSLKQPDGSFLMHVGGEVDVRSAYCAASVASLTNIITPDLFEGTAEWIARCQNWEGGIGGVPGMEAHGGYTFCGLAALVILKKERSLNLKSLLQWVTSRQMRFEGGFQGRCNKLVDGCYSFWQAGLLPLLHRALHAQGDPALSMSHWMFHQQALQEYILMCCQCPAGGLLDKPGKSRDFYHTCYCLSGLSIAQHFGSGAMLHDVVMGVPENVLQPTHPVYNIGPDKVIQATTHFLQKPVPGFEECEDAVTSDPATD

For the compound `CSCC[C@H](NC(=O)c1ccc(CN(C)C(C)(C)Cc2ccccc2)cc1-c1ccccc1C)C(=O)O` [Example 309], under “Table 2, 1 × 10^-6 M”, the % inhibition – broadly, how much of the control response was suppressed – at 1 × 10^-6 M was found to be 98%.

As to `Cc1ccccc1-c1cc(CNC(C)(C)Cc2ccccc2)ccc1C(=O)N[C@@H](CCS(C)(=O)=O)C(=O)O` [Example 311], the “% inhibition at 1 × 10^-6 M” value (Table 2, 1 × 10^-6 M) is recorded as 97%.

On to `Cc1ccccc1-c1cc(CN(C)C(C)(C)Cc2ccccc2)ccc1C(=O)N[C@@H](CCS(C)(=O)=O)C(=O)O` [Example 313], for which, where the note is “Table 2, 1 × 10^-6 M”, the “% inhibition at 1 × 10^-6 M” value came out at 94%.

Regarding `Cc1ccccc1-c1cc(CN(C)C(C)(C)CC2CCCCC2)ccc1C(=O)N[C@@H](CCS(C)(=O)=O)C(=O)O` [Example 314], the “% inhibition at 1 × 10^-6 M” value (Table 2, 1 × 10^-6 M) is listed as 97%.

On to `CSCC[C@H](NC(=O)c1ccc(CN(C2CC2)C(C)(C)Cc2ccccc2)cc1-c1ccccc1C)C(=O)O` [Example 315], for which, under “Table 2, 1 × 10^-6 M”, the “% inhibition at 1 × 10^-6 M” value is 93%.

With `CSCC[C@H](NC(=O)c1ccc(CN(C2CC2)C(C)(C)CC2CCCCC2)cc1-c1ccccc1C)C(=O)O` [Example 316], the “% inhibition at 1 × 10^-6 M” value (Table 2, 1 × 10^-6 M) came out at 63%.

With `CSCC[C@H](NC(=O)c1ccc(CN(C(C)C)C(C)(C)Cc2ccccc2)cc1-c1ccccc1C)C(=O)O` [Example 317], the “% inhibition at 1 × 10^-6 M” value (Table 2, 1 × 10^-6 M) is recorded as 54%.

`CSCC[C@H](NC(=O)c1ccc(CN(C(C)C)C(C)(C)CC2CCCCC2)cc1-c1ccccc1C)C(=O)O` [Example 318]: the “% inhibition at 1 × 10^-6 M” value (Table 2, 1 × 10^-6 M) turned out to be 98%.

`Cc1ccccc1-c1cc(CN(C2CC2)C(C)(C)Cc2ccccc2)ccc1C(=O)N[C@@H](CCS(C)(=O)=O)C(=O)O` [Example 319]: the “% inhibition at 1 × 10^-6 M” value (Table 2, 1 × 10^-6 M) was found to be 98%.

For `Cc1ccccc1-c1cc(CN(C2CC2)C(C)(C)CC2CCCCC2)ccc1C(=O)N[C@@H](CCS(C)(=O)=O)C(=O)O` [Example 320], the “% inhibition at 1 × 10^-6 M” value (Table 2, 1 × 10^-6 M) amounted to 93%.

With `CSCC[C@H](NC(=O)c1ccc(COc2nc3ccccc3s2)cc1-c1ccccc1C)C(=O)O` [Example 321, [4-(2-benzothiazolyloxymethyl)-2-(2-methylphenyl)benzoyl]methionine], the inhibition (in general, how much of the control response was suppressed) at 1 µM (Table 2, 1 × 10^-6 M) was 90%.

For the compound `CSCC[C@H](NC(=O)c1ccc(CSc2nc3ccccc3o2)cc1-c1ccccc1C)C(=O)O` [Example 322, [4-(2-benzoxazolylthiomethyl)-2-(2-methylphenyl)benzoyl]methionine], the inhibition at 1 µM (Table 2, 1 × 10^-6 M) was 98%.

In the case of `CSCC[C@H](NC(=O)c1ccc(CSc2nc3ccccc3s2)cc1-c1ccccc1C)C(=O)O` [Example 323, [4-(2-benzothiazolylthiomethyl)-2-(2-methylphenyl)benzoyl]methionine], the inhibition at 1 µM (Table 2, 1 × 10^-6 M) stood at 98%.

With `CSCC[C@H](NC(=O)c1ccc(CN(C2CC2)C2(CC3CCCCC3)CC2)cc1-c1ccccc1C)C(=O)O` [Example 324], under “Table 2, 1 × 10^-6 M”, the “% inhibition at 1 × 10^-6 M” value is on record as 98%.

Regarding `CSCC[C@H](NC(=O)c1ccc(CN(C(C)C)C2(Cc3ccccc3)CC2)cc1-c1ccccc1C)C(=O)O` [Example 325], for the setting “Table 2, 1 × 10^-6 M”, the “% inhibition at 1 × 10^-6 M” value came to 99%.

Consider `CSCC[C@H](NC(=O)c1ccc(CN(C(C)C)C2(CC3CCCCC3)CC2)cc1-c1ccccc1C)C(=O)O` [Example 326], for which, for the setting “Table 2, 1 × 10^-6 M”, the “% inhibition at 1 × 10^-6 M” value was found to be 91%.

Consider `CSCC[C@H](NC(=O)c1ccc(COCc2ccc(-c3ccccc3)o2)cc1-c1ccccc1C)C(=O)O` [Example 327, [4-(5-phenylfur-2-ylmethyloxymethyl)-2-(2-methylphenyl)benzoyl]methionine lithium salt], for which the inhibition at 1 µM is 97%.

On to `CSCC[C@H](NC(=O)c1ccc(CN(C2CC2)C2(Cc3ccccc3)CCC2)cc1-c1ccccc1C)C(=O)O` [Example 329], for which the “% inhibition at 1 × 10^-6 M” value (Table 2, 1 × 10^-6 M) is 98%.

For `CSCC[C@H](NC(=O)c1ccc(CN(C2CC2)C2(CC3CCCCC3)CCC2)cc1-c1ccccc1C)C(=O)O` [Example 330], the “% inhibition at 1 × 10^-6 M” value (Table 2, 1 × 10^-6 M) was determined as 98%.

As to `CSCC[C@H](NC(=O)c1ccc(CN(C(C)C)C2(Cc3ccccc3)CCC2)cc1-c1ccccc1C)C(=O)O` [Example 331], the “% inhibition at 1 × 10^-6 M” value (Table 2, 1 × 10^-6 M) came out at 98%.

For `CSCC[C@H](NC(=O)c1ccc(CN(C(C)C)C2(CC3CCCCC3)CCC2)cc1-c1ccccc1C)C(=O)O` [Example 332], the “% inhibition at 1 × 10^-6 M” value (Table 2, 1 × 10^-6 M) is reported as 26%.

Consider `Cc1ccccc1-c1cc(CN(C2CC2)C2(Cc3ccccc3)CCC2)ccc1C(=O)N[C@@H](CCS(C)(=O)=O)C(=O)O` [Example 333], for which, under “Table 2, 1 × 10^-6 M”, the “% inhibition at 1 × 10^-6 M” value worked out at 99%.

As to `Cc1ccccc1-c1cc(CN(C2CC2)C2(CC3CCCCC3)CCC2)ccc1C(=O)N[C@@H](CCS(C)(=O)=O)C(=O)O` [Example 334], where the note is “Table 2, 1 × 10^-6 M”, the “% inhibition at 1 × 10^-6 M” value is recorded as 93%.

For the compound `CSCC[C@H](NC(=O)c1ccc(CN(C(C)C)C2(Cc3ccccc3)CCCC2)cc1-c1ccccc1C)C(=O)O` [Example 343], where the note is “Table 2, 1 × 10^-6 M”, the “% inhibition at 1 × 10^-6 M” value is listed as 72%.

Regarding `CSCC[C@H](NC(=O)c1ccc(CN(C(C)C)C2(CC3CCCCC3)CCCC2)cc1-c1ccccc1C)C(=O)O` [Example 344], for the setting “Table 2, 1 × 10^-6 M”, the “% inhibition at 1 × 10^-6 M” value was 95%.

As to `Cc1ccccc1-c1cc(CN(C2CC2)C2(Cc3ccccc3)CCCC2)ccc1C(=O)N[C@@H](CCS(C)(=O)=O)C(=O)O` [Example 345], under “Table 2, 1 × 10^-6 M”, the “% inhibition at 1 × 10^-6 M” value is given as 91%.

In the case of `Cc1ccccc1-c1cc(CN(C2CC2)C2(CC3CCCCC3)CCCC2)ccc1C(=O)N[C@@H](CCS(C)(=O)=O)C(=O)O` [Example 346], the “% inhibition at 1 × 10^-6 M” value (Table 2, 1 × 10^-6 M) was found to be 98%.

For `CSCC[C@H](NC(=O)c1ccc(CN2C(=O)OC[C@@H]2CC2CCCCC2)cc1-c1ccccc1C)C(=O)O` [Example 349], the “% inhibition at 1 × 10^-6 M” value (Table 2, 1 × 10^-6 M) is recorded as 99%.

For `CCn1cc(NCc2ccc(C(=O)N[C@@H](CCSC)C(=O)O)c(-c3ccccc3)c2)c(=O)n1CC` [Example 364], the “% inhibition at 1 × 10^-5 M” value came to 69%.

With `CSCC[C@H](NC(=O)c1ccc(CNCCN2CCOCC2)cc1-c1ccccc1)C(=O)O` [Example 365], the “% inhibition at 1 × 10^-5 M” value is reported as 97%.

As to `CSCC[C@H](NC(=O)c1ccc(CNCCN2CCCCC2)cc1-c1ccccc1)C(=O)O` [Example 366], the “% inhibition at 1 × 10^-5 M” value was 83%.

For the compound `CSCC[C@H](NC(=O)c1ccc(CNCCc2cccs2)cc1-c1ccccc1)C(=O)O` [Example 369], the “% inhibition at 1 × 10^-5 M” value worked out at 87%.

As for `CSCC[C@H](NC(=O)c1ccc(CNc2cc[nH]n2)cc1-c1ccccc1)C(=O)O` [Example 370], the “% inhibition at 1 × 10^-5 M” value is recorded as 86%.

As for `CSCC[C@H](NC(=O)c1ccc(CNc2nnc(C)s2)cc1-c1ccccc1)C(=O)O` [Example 371], the “% inhibition at 1 × 10^-5 M” value worked out at 66%.

`CSCC[C@H](NC(=O)c1ccc(CNc2cc(C)on2)cc1-c1ccccc1)C(=O)O` [Example 372]: the “% inhibition at 1 × 10^-5 M” value worked out at 69%.

As to `CSCC[C@H](NC(=O)c1ccc(CNc2cc(C)ns2)cc1-c1ccccc1)C(=O)O` [Example 373], the “% inhibition at 1 × 10^-5 M” value turned out to be 76%.

As for `CSCC[C@H](NC(=O)c1ccc(CNc2nccs2)cc1-c1ccccc1)C(=O)O` [Example 374], the “% inhibition at 1 × 10^-5 M” value is recorded as 61%.

For the compound `CSCC[C@H](NC(=O)c1ccc(CNCCCN2CCOCC2)cc1-c1ccccc1)C(=O)O` [Example 377], the “% inhibition at 1 × 10^-5 M” value was 71%.

With `CSCC[C@H](NC(=O)c1ccc(CNc2cc(C(C)(C)C)[nH]n2)cc1-c1ccccc1)C(=O)O` [Example 381], the “% inhibition at 1 × 10^-5 M” value was 79%.

`CCSC[C@H](CC1CCCCC1)NCc1ccc(C(=O)N[C@@H](CCSC)C(=O)O)c(-c2ccccc2C)c1` [Example 403]: the “% inhibition at 1 × 10^-6 M” value (Table 2, 1 × 10^-6 M) is 99%.
